Measurements published in the NIST ThermoML archive (doi:10.1016/j.jct.2011.05.003).
± gives the expanded uncertainty stated by the source.

Conditions: 101.33 kPa, Liquid; for speed of sound: Sing-around technique in a fixed-path interferometer; for mass density: Vibrating tube method

Row | Structure (SMILES) | speed of sound (293.15 K) [m/s] | mass density (293.15 K) [kg/m3] | speed of sound (298.15 K) [m/s] | mass density (298.15 K) [kg/m3] | speed of sound (303.15 K) [m/s] | mass density (303.15 K) [kg/m3]
1 | CCCCCC(C)=O [2-heptanone] | 1281.9 ± 1.2 | 815.433 ± 0.24 | 1262.5 ± 1.2 | 811.139 ± 0.24 | 1244.1 ± 1.2 | 806.827 ± 0.24
2 | CCCCNCCCC [dibutylamine] | 1261.2 ± 0.83 | 759.529 ± 0.16 | 1241.4 ± 0.82 | 755.577 ± 0.16 | 1222.2 ± 0.82 | 751.407 ± 0.16
3 | CCCNCCC [dipropylamine] | 1209.4 ± 1.2 | 738.259 ± 0.25 | 1188 ± 1.2 | 733.81 ± 0.25 | 1167.6 ± 1.2 | 
4 | CCN(CC)CC [triethylamine] | 1132.5 ± 0.8 | 727.333 ± 0.17 | 1110.9 ± 0.8 | 722.729 ± 0.17 | 1090.7 ± 0.78 | 718.092 ± 0.17
